System: biofilms
Experiment: pilot site cooling tower (building downtown Montreal) treated with biodispersant, DATS clogging monitor and direct microbiological measurements

## COC(C)COC(C)CO (stereo not drawn) [dipropylene glycol methyl ether]
300 ppm in recirculating water, no bactericide
  dig out of deposits covering the inside walls of the tower: allowed first the dig out of the deposits
After few days of treatment
  DATS clogging monitor measurements: the measurements were stabilized
Without any bactericide injection
  direct measurements of the microbiological activity (bacterial population vs initial state): downwards stabilization of the bacterial population

Source: patent publication US20060251692A1, “Use of glycol ethers as biodispersants in heating and cooling systems” (priority 2005, published 2006)
